Series [1] in a line: Molar enthalpy of transition or fusion. To be noted: Crystal; DSC.
For series [2] the following is noted: Crystal; DTA.

SMILES strings stand for the structures. Numbers after ± are expanded uncertainties.

In the case of `CC(=O)[O-].[Cs+]` [cesium acetate], the “Molar enthalpy of transition or fusion” value in series [1] turned out to be 2.63 ± 0.0956 kcal/mol. Moreover, the Normal melting temperature in series [2] was 191.6 ± 0.4 °C.

For `CC(=O)[O-].[Na+]` [sodium ethanoate], the “Molar enthalpy of transition or fusion” value in series [1] was determined as 4.16 ± 0.0956 kcal/mol. Also, in series [2], the Normal melting temperature came to 329.4 ± 0.4 °C.

With `CC(=O)[O-].[Rb+]` [rubidium acetate], the “Molar enthalpy of transition or fusion” value in series [1] came to 2.13 ± 0.191 kcal/mol. In series [2], the Normal melting temperature is 240.5 ± 0.4 °C.

Regarding `CC(=O)[O-].[K+]` [potassium ethanoate], the “Molar enthalpy of transition or fusion” value in series [1] was 2.87 ± 0.0956 kcal/mol. For the same compound, in series [2], the Normal melting temperature was determined as 305.2 ± 0.4 °C.

For the compound `CC(=O)[O-].[Li+]` [lithium acetate], the “Molar enthalpy of transition or fusion” value in series [1] amounted to 3.01 ± 0.0956 kcal/mol. Besides, in series [2], the Normal melting temperature was determined as 283.5 ± 0.4 °C.

For the origin of these results see the NIST ThermoML archive (doi:10.1016/j.tca.2004.11.004).
